test: Saturation of dye in decane (solubility); type: physicochemical; settings: saturated solution in decane

| Saturation wt % in decane [wt %] | Compound |
| --- | --- |
| 9.95 | CCCCc1ccc(/N=N/c2ccc(N(CCCC)CCCC)cc2)cc1 [Dye 7] |
| 10.50 | CCCCCCCCN(CCCCCCCC)c1ccc(/N=N/c2ccc([N+](=O)[O-])cc2)c(C)c1 [Dye 8, (E)-3-Methyl-4-((4-nitrophenyl)diazenyl)-N,N-dioctylaniline] |

Further lines, the compound ahead of its results:

| Compound | Saturation wt % in decane [wt %] |
| --- | --- |
| CCCCCCCCCCCCCCCCCCN(CCCCCCCCCCCCCCCCCC)c1cc(NC(C)=O)c(/N=N/c2c(C#N)cc([N+](=O)[O-])cc2C#N)cc1OC [Dye 1] | 0.003 |
| CCCCCCCCCCCCCCc1ccc(/N=N/c2c(C)c(C#N)c(=O)n(CC(CC)CCCC)c2O)cc1 (stereo not drawn) [Dye 5, (E)-1-(2-Ethylhexyl)-6-hydroxy-4-methyl-2-oxo-5-((4-tetradecylphenyl)diazenyl)-1,2-dihydropyridine-3-carbonitrile] | 1.03 |
| CCCCCCCCCCCCCCc1ccc(/N=N/c2c(C)cc(=O)n(CC(CC)CCCC)c2O)cc1 (stereo not drawn) [Dye 6, (E)-1-(2-ethylhexyl)-6-hydroxy-4-methyl-5-((4-tetradecylphenyl)diazenyl)pyridin-2(1H)-one] | 3.72 |
| CCCCCCCCN(CCCCCCCC)c1ccc(/N=N/c2snc(C)c2C#N)c(NC(C)=O)c1 [Dye 4, N-(2-((4-Cyano-3-methylisothiazol-5-yl)diazenyl)-5-(dioctylamino)phenyl)acetamide] | 0.19 |
